# From ChEMBL document CHEMBL3865786, “Scaffold-hopping of bioactive flavonoids: Discovery of aryl-pyridopyrimidinones as potent anticancer agents that inhibit catalytic role of topoisomerase IIα” (Eur J Med Chem, 2016)
# Calls of active or inactive are those of the source. The rule behind the calls is not given here.
# Legend:
# [1] = Cytotoxicity against human HCT116 cells assessed as reduction in cell viability after 48 hrs by MTT assay; format: functional, cell-based; conditions: HCT-116, 48 h
# HEK293 [2] = assay: (§1) Cytotoxicity against HEK293 cells assessed as reduction in cell viability after 48 hrs by MTT assay; format: functional; conditions: Homo sapiens
# [3] = as §1; format: functional; conditions: Homo sapiens, HEK293, 48 h; read-out: LC50 (the source's name)
# HEK293 [4] = assay: (§2) Anticlonogenic activity against HEK293 cells assessed as inhibition of colony formation incubated for 48 hrs measured after 6 days by crystal violet staining based assay; format: functional; conditions: Homo sapiens
# [5] = as §2; format: functional; conditions: Homo sapiens, read-out: LC50 (the source's name)
# [6] = Cytotoxicity against human A549 cells assessed as reduction in cell viability after 48 hrs by MTT assay; format: functional, cell-based; conditions: A549, 48 h
# [7] = Cytotoxicity against human HeLa cells assessed as reduction in cell viability after 48 hrs by MTT assay; format: functional, cell-based
# [8] = Cytotoxicity against African green monkey Vero cells assessed as reduction in cell viability after 48 hrs by MTT assay; format: toxicity, cell-based; conditions: chlorocebus sabaeus; for CC50 at 48 h: Vero cells, read-out: LC50; for Activity: vero, 48 h
# [9] = biological target: DNA topoisomerase 2-alpha (Homo sapiens) (UniProt P11388); assay: Inhibition of human DNA topoisomerase 2alpha-mediated decatenation of kinetoplast DNA at 100 uM after 30 mins by agarose gel electrophoresis
# Chain of DNA topoisomerase 2-alpha (Homo sapiens) (P11388 whole entry): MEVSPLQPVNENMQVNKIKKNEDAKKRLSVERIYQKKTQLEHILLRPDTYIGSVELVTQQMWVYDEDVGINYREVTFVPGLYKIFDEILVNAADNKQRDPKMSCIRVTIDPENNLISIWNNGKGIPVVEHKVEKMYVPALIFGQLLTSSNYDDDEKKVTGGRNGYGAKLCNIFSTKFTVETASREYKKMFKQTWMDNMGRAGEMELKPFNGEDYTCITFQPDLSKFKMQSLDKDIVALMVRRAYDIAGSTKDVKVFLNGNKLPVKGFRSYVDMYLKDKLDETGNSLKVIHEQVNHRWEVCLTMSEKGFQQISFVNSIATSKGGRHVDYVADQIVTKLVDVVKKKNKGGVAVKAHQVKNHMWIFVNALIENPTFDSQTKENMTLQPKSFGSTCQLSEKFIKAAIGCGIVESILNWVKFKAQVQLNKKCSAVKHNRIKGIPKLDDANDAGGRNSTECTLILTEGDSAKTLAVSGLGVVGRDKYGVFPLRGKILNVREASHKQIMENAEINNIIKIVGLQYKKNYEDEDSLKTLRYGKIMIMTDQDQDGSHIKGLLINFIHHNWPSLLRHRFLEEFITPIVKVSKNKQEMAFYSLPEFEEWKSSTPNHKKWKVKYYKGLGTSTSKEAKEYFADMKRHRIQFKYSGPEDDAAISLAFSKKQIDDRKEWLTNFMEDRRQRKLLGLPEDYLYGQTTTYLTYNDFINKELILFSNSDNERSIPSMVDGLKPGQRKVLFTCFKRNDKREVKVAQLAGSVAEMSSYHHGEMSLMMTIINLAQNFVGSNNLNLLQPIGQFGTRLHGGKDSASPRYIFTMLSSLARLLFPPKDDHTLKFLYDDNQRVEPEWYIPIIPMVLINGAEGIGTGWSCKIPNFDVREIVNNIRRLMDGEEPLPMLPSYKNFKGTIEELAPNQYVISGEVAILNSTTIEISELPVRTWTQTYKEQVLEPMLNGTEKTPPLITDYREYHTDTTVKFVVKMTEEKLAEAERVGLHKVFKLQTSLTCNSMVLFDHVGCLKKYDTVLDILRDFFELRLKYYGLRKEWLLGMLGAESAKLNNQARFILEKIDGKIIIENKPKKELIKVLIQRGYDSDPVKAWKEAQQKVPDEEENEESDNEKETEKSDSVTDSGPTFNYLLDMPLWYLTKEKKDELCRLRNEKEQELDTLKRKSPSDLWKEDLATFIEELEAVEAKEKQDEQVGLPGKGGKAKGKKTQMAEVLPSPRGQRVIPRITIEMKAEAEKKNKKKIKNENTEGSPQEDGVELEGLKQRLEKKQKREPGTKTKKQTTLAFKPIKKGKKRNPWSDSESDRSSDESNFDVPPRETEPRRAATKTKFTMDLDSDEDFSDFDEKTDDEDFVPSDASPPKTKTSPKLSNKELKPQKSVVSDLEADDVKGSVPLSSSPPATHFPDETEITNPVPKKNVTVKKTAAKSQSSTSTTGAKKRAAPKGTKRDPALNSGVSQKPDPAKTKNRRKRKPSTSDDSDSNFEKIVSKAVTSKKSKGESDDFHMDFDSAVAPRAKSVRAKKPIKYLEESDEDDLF
# [10] = Cytotoxicity against human MCF7 cells assessed as reduction in cell viability after 48 hrs by MTT assay; format: functional, cell-based; conditions: MCF7, 48 h
# [11] = Cytotoxicity against human H357 cells assessed as reduction in cell viability after 48 hrs by MTT assay; format: functional, cell-based; conditions: H357, 48 h
# HEK293 [12] = assay: Potency index, ratio of etoposide LC50 to compound LC50 for anticlonogenic activity in HEK293 cells; format: functional, Homo sapiens
# HEK293 [13] = assay: Induction of apoptosis in HEK293 cells assessed as apoptotic cells at 2.4 uM after 48 hrs by Annexin-V/FITC/PI dual staining based flow cytometry (reference value: 0.07 +/- 0.2%); format: functional, Homo sapiens
# HEK293 [14] = assay: Induction of apoptosis in HEK293 cells assessed as late apoptotic cells at 5 uM after 48 hrs by Annexin-V/FITC/PI dual staining based flow cytometry (reference value: 0.82 +/- 0.5%); format: functional, Homo sapiens
# HEK293 [15] = assay: Induction of apoptosis in HEK293 cells assessed as apoptotic cells at 1 uM after 48 hrs by Annexin-V/FITC/PI dual staining based flow cytometry (reference value: 0.07 +/- 0.2%); format: functional, Homo sapiens
# HEK293 [16] = assay: Induction of apoptosis in HEK293 cells assessed as normal cells at 2.4 uM after 48 hrs by Annexin-V/FITC/PI dual staining based flow cytometry (reference value: 98.2 +/- 1.7%); format: functional, Homo sapiens
# HEK293 [17] = assay: Induction of apoptosis in HEK293 cells assessed as shrinkage after 48 hrs by DAPI staining based fluorescence microscopy; format: functional, cell-based; conditions: Homo sapiens
# HEK293 [18] = assay: Induction of apoptosis in HEK293 cells after 48 hrs by Annexin V-FITC/propidium iodide staining based flow cytometry; format: functional, cell-based; conditions: Homo sapiens
# HEK293 [19] = assay: Induction of apoptosis in HEK293 cells assessed as early apoptotic cells at 2.4 uM after 48 hrs by Annexin-V/FITC/PI dual staining based flow cytometry (reference value: 0.19 +/- 1.4%); format: functional, Homo sapiens
# [20] = Binding affinity to DNA (unknown origin) assessed as hypochromism after 1 hr by UV-Vis absorption spectrophotometric analysis
# HEK293 [21] = assay: Induction of apoptosis in HEK293 cells assessed as early apoptotic cells at 5 uM after 48 hrs by Annexin-V/FITC/PI dual staining based flow cytometry (reference value: 0.19 +/- 1.4%); format: functional, Homo sapiens
# HEK293 [22] = assay: Induction of apoptosis in HEK293 cells assessed as normal cells at 1 uM after 48 hrs by Annexin-V/FITC/PI dual staining based flow cytometry (reference value: 98.2 +/- 1.7%); format: functional, Homo sapiens
# HEK293 [23] = assay: Induction of apoptosis in HEK293 cells assessed as early apoptotic cells at 1 uM after 48 hrs by Annexin-V/FITC/PI dual staining based flow cytometry (reference value: 0.19 +/- 1.4%); format: functional, Homo sapiens
# HEK293 [24] = assay: Induction of apoptosis in HEK293 cells assessed as normal cells at 5 uM after 48 hrs by Annexin-V/FITC/PI dual staining based flow cytometry (reference value: 98.2 +/- 1.7%); format: functional, Homo sapiens
# HEK293 [25] = assay: Induction of apoptosis in HEK293 cells assessed as late apoptotic cells at 1 uM after 48 hrs by Annexin-V/FITC/PI dual staining based flow cytometry (reference value: 0.82 +/- 0.5%); format: functional, Homo sapiens
# HEK293 [26] = assay: Induction of apoptosis in HEK293 cells assessed as bubble shaped nuclei after 48 hrs by DAPI staining based fluorescence microscopy; format: functional, cell-based; conditions: Homo sapiens
# HEK293 [27] = assay: Induction of apoptosis in HEK293 cells assessed as late apoptotic cells at 2.4 uM after 48 hrs by Annexin-V/FITC/PI dual staining based flow cytometry (reference value: 0.82 +/- 0.5%); format: functional, Homo sapiens
# HEK293 [28] = assay: Induction of apoptosis in HEK293 cells assessed as deformation after 48 hrs by DAPI staining based fluorescence microscopy; format: functional, cell-based; conditions: Homo sapiens
# HEK293 [29] = assay: Induction of apoptosis in HEK293 cells assessed as apoptotic cells at 5 uM after 48 hrs by Annexin-V/FITC/PI dual staining based flow cytometry (reference value: 0.07 +/- 0.2%); format: functional, Homo sapiens
# Bos taurus = species: Bos taurus; assay: Binding affinity to calf thymus DNA assessed as DNA intercalation by measuring conformational changes at 100 uM after 2 hrs by CD spectroscopic analysis
compound,measurement,setting,value
Cc1ccc(-c2cnc3ccccn3c2=O)cc1,IC50,[1],2.5 µM
same,Activity,HEK293 [2],Dose-dependent effect
same,CC50,[3],3.5 µM
same,inhibition,HEK293 [4],Dose-dependent effect
same,CC50,[5],2.5 µM
same,IC50,[6],2.5 µM
same,IC50,[7],3 µM
same,CC50 at 48 h,[8],44 µM
same,Activity,[8],Dose-dependent effect
same,Topoisomerase 2-alpha inhibition (active/inactive),[9],Active
same,IC50,[10],4 µM
same,IC50,[11],2.8 µM
same,RatioLC50,HEK293 [12],5 - 10
O=c1c(-c2cccc3ccccc23)cnc2ccccn12,CC50,[3],7 µM
same,CC50 at 48 h,[8],60 µM
same,Topoisomerase 2-alpha inhibition (active/inactive),[9],Active
O=c1cc(-c2ccc3c(c2)OCO3)nc2ccccn12,CC50,[3],15.5 µM
same,CC50 at 48 h,[8],52 µM
same,Topoisomerase 2-alpha inhibition (active/inactive),[9],Active
O=c1c(-c2cc(O)cc(O)c2)cnc2ccccn12,IC50,[1],3 µM
same,Activity,HEK293 [2],Dose-dependent effect
same,CC50,[3],2 µM
same,inhibition,HEK293 [4],Dose-dependent effect
same,CC50,[5],2.4 µM
same,IC50,[6],2.8 µM
same,IC50,[7],1.5 µM
same,CC50 at 48 h,[8],50 µM
same,Activity,[8],Dose-dependent effect
same,Topoisomerase 2-alpha inhibition (active/inactive),[9],Active
same,IC50,[10],2 µM
same,IC50,[11],3 µM
same,RatioLC50,HEK293 [12],5 - 10
O=c1cc(-c2ccc(Cl)cc2)nc2ccccn12,Activity,HEK293 [13],0.2%
same,IC50,[1],2.5 µM
same,Activity,HEK293 [14],18.56%
same,Activity,HEK293 [15],0.66%
same,Activity,HEK293 [16],87%
same,Activity,HEK293 [17],Dose-dependent effect
same,Activity,HEK293 [2],Dose-dependent effect
same,CC50,[3],2.4 µM
same,Activity,HEK293 [18],Dose-dependent effect
same,Activity,HEK293 [19],0%
same,inhibition,HEK293 [4],Dose-dependent effect
same,CC50,[5],2 µM
same,Activity,[20],Active
same,Activity,HEK293 [21],0.42%
same,IC50,[6],2.1 µM
same,Activity,HEK293 [22],88.48%
same,IC50,[7],2 µM
same,Activity,HEK293 [23],0.02%
same,Activity,HEK293 [24],77.6%
same,CC50 at 48 h,[8],47.5 µM
same,Activity,[8],Dose-dependent effect
same,Topoisomerase 2-alpha inhibition (active/inactive),[9],Active
same,IC50,[10],1.8 µM
same,Activity,HEK293 [25],10.83%
same,IC50,[11],2.3 µM
same,RatioLC50,HEK293 [12],5 - 10
same,Activity,HEK293 [26],Dose-dependent effect
same,Activity,HEK293 [27],12.8%
same,Activity,HEK293 [28],Dose-dependent effect
same,Activity,HEK293 [29],3.41%
COc1ccc(-c2coc3ccccc3c2=O)cc1,CC50,[3],12 µM
same,CC50 at 48 h,[8],52 µM
O=c1c(-c2cccc3ccccc23)coc2ccccc12,CC50,[3],12 µM
same,CC50 at 48 h,[8],42 µM
same,Topoisomerase 2-alpha inhibition (active/inactive),[9],Active
Cc1ccc(-c2coc3ccccc3c2=O)cc1,CC50,[3],8 µM
same,CC50 at 48 h,[8],48 µM
same,Topoisomerase 2-alpha inhibition (active/inactive),[9],Active
O=c1cc(-c2ccc(O)c(O)c2)nc2ccccn12,CC50,[3],13 µM
same,CC50 at 48 h,[8],32 µM
same,Topoisomerase 2-alpha inhibition (active/inactive),[9],Active
COc1ccc(-c2cc(=O)n3ccccc3n2)cc1OC,CC50,[3],17 µM
same,CC50 at 48 h,[8],50 µM
same,Topoisomerase 2-alpha inhibition (active/inactive),[9],Active
COc1ccc(-c2cc(=O)c3ccccc3o2)cc1 [4'-METHOXYFLAVONE],CC50,[3],8.5 µM
same,CC50 at 48 h,[8],45 µM
same,Topoisomerase 2-alpha inhibition (active/inactive),[9],Active
COc1cc(-c2coc3ccccc3c2=O)cc(OC)c1OC,CC50,[3],10 µM
same,CC50 at 48 h,[8],50 µM
same,Topoisomerase 2-alpha inhibition (active/inactive),[9],Active
COc1ccc(-c2cnc3ccccn3c2=O)cc1,CC50,[3],19 µM
same,CC50 at 48 h,[8],38 µM
same,Topoisomerase 2-alpha inhibition (active/inactive),[9],Active
COc1cc(-c2cc(=O)c3ccccc3o2)cc(OC)c1OC,CC50,[3],12 µM
same,CC50 at 48 h,[8],52 µM
same,Topoisomerase 2-alpha inhibition (active/inactive),[9],Active
O=c1c(-c2ccc(O)c(O)c2)cnc2ccccn12,CC50,[3],9 µM
same,CC50 at 48 h,[8],38 µM
same,Topoisomerase 2-alpha inhibition (active/inactive),[9],Active
COc1ccc(-c2cc(=O)n3ccccc3n2)cc1,CC50,[3],8 µM
same,CC50 at 48 h,[8],60 µM
same,Topoisomerase 2-alpha inhibition (active/inactive),[9],Active
COc1cccc(-c2cnc3ccccn3c2=O)c1,CC50,[3],9 µM
same,CC50 at 48 h,[8],46 µM
same,Topoisomerase 2-alpha inhibition (active/inactive),[9],Active
O=c1c(-c2ccccc2)cnc2c(OCc3ccccc3)cccn12,IC50,[1],3 µM
same,Activity,HEK293 [2],Dose-dependent effect
same,CC50,[3],3 µM
same,inhibition,HEK293 [4],Dose-dependent effect
same,CC50,[5],3.8 µM
same,IC50,[6],2 µM
same,IC50,[7],1.5 µM
same,CC50 at 48 h,[8],60 µM
same,Activity,[8],Dose-dependent effect
same,Topoisomerase 2-alpha inhibition (active/inactive),[9],Active
same,IC50,[10],2 µM
same,IC50,[11],3 µM
same,RatioLC50,HEK293 [12],5 - 10
CC[n+]1c(-c2ccccc2)c2cc(N)ccc2c2ccc(N)cc21,Activity,Bos taurus,Active
O=Cc1ccc(-c2cc(=O)n3ccccc3n2)cc1,IC50,[1],3.5 µM
same,Activity,HEK293 [2],Dose-dependent effect
same,CC50,[3],3 µM
same,inhibition,HEK293 [4],Dose-dependent effect
same,CC50,[5],2.5 µM
same,Activity,[20],Active
same,IC50,[6],2.4 µM
same,IC50,[7],3 µM
same,CC50 at 48 h,[8],48 µM
same,Activity,[8],Dose-dependent effect
same,Topoisomerase 2-alpha inhibition (active/inactive),[9],Active
same,IC50,[10],2.5 µM
same,IC50,[11],2.5 µM
same,RatioLC50,HEK293 [12],5 - 10
COc1cc([C@@H]2c3cc4c(cc3[C@@H](O[C@@H]3O[C@@H]5CO[C@@H](C)O[C@H]5[C@H](O)[C@H]3O)[C@H]3COC(=O)[C@H]23)OCO4)cc(OC)c1O [ETOPOSIDE],CC50,[3],22 µM
same,CC50,[5],20 µM
same,CC50 at 48 h,[8],55 µM
same,Topoisomerase 2-alpha inhibition (active/inactive),[9],Active
COc1cc(-c2cc(=O)n3ccccc3n2)cc(OC)c1OC,CC50,[3],9 µM
same,Activity,[20],Active
same,CC50 at 48 h,[8],46 µM
same,Topoisomerase 2-alpha inhibition (active/inactive),[9],Active
O=c1c(-c2cccc(O)c2)cnc2ccccn12,CC50,[3],6 µM
same,CC50 at 48 h,[8],52 µM
same,Topoisomerase 2-alpha inhibition (active/inactive),[9],Active
O=c1cc(-c2ccc3c(c2)OCO3)oc2ccccc12,CC50,[3],8 µM
same,CC50 at 48 h,[8],48 µM
same,Topoisomerase 2-alpha inhibition (active/inactive),[9],Active
O=c1c(-c2ccc3c(c2)OCO3)cnc2ccccn12,CC50,[3],15 µM
same,CC50 at 48 h,[8],48 µM
same,Topoisomerase 2-alpha inhibition (active/inactive),[9],Active
COc1cc(-c2cnc3ccccn3c2=O)cc(OC)c1OC,IC50,[1],3.2 µM
same,Activity,HEK293 [2],Dose-dependent effect
same,CC50,[3],3 µM
same,inhibition,HEK293 [4],Dose-dependent effect
same,CC50,[5],1.8 µM
same,IC50,[6],2.1 µM
same,IC50,[7],2.8 µM
same,CC50 at 48 h,[8],40 µM
same,Activity,[8],Dose-dependent effect
same,Topoisomerase 2-alpha inhibition (active/inactive),[9],Active
same,IC50,[10],3 µM
same,IC50,[11],3 µM
same,RatioLC50,HEK293 [12],5 - 10
